Laboratory results: patent US7858621B2 (Amorepacific Corporation, priority 2006, dated 2010)
Where two headings read alike, the source gives them in different places.

Columns and labels:
[1] = Metabolic stability test in rat liver microsomes; assay type: in vitro ADME; details: 5 μg/mL, 0.5 mg/mL protein, 30 min incubation
Protocol: (§1) 1) Metabolic Stability Test
(§2) Diluted sample (final 5 μg/mL in 0.1 M potassium phosphate buffer, pH 7.4) was pre-incubated with cofactors (glucose-6-phosphate 3.3 mM, NADPH 1.3 mM, MgCl2 0.16 mM, glucose-6-phosphate dehydrogenase 0.4 U/mL final) and enzyme reaction was initiated with the addition of human intestinal (1 mg/mL protein) or rat liver microsomes (0.5 mg/mL protein). Reaction was terminated with 2× volume of cold acetonitrile after 1 min (initial point) or 30 min (reacted sample) incubation. In case of human intestinal microsomes, 2 hr reaction time was employed. Reaction mixture was undergone extraction in shaking bath over 20 min, after which resultant supernatant was separated by centrifugation. Area of parent compound peak was analyzed in the supernatant using HPLC-UV method and the extent of metabolism was shown as the decreased compound peak area (%) from initial point.

[2] = Metabolic stability test in human intestinal microsomes; assay type: in vitro ADME; details: 5 μg/mL, 1 mg/mL protein, 2 hr reaction time
Protocol: as §1, §2

[3] = PK study in rats, single oral administration; assay type: in vivo; set-up: AUC: concentration or dose not given beside the values; details: rat, plasma
Protocol: Pharmacokinetics of compounds in rats were analyzed using the following experiment. Rats were fasted overnight prior to administration and until approximately 4 hours after administration. Rats were given a single oral administration of compound at same dose. Administration volume was 10 ml/kg. Blood samples were collected from the retro-orbital sinus at various times over the following 7 hrs. Immediately after each collection, plasmas were separated from blood cells by centrifugation and stored at −20° C. until the analysis was performed. The plasma samples were analyzed using a reverse phase high-performance chromatography (HPLC) method.

vanilloid receptor = target: T1, vanilloid receptor (Rattus norvegicus, UniProt O35433); assay: 45Ca influx test in cultured neonatal rat DRG neurons, inhibition of capsaicin response; assay type: cell-based
T1 construct: DRG nerve cells from the primary culture of 2 days were equilibrated; endogenous in cells; host or cells: primary culture of dorsal root ganglion neurons from neonatal SD rats
Summary of the method: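 Neonatal SD rat DRG neurons, cultured 2 days with NGF (200 ng/ml) and Ara-C, were washed in HEPES (10 mM, pH 7.4)-buffered Ca/Mg-free HBSS. Test compound was added with capsaicin (final 0.5 μM) and 45Ca (10 μCi/ml) for 10 min at room temperature; 45Ca uptake counted by scintillation after SDS elution.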

[4] = neonatal rat DRG neurons, capsaicin 0.5 μM, 45Ca influx, read-out: Antagonist Calcium Uptake Test (IC50)

T1 sequence (O35433 whole entry): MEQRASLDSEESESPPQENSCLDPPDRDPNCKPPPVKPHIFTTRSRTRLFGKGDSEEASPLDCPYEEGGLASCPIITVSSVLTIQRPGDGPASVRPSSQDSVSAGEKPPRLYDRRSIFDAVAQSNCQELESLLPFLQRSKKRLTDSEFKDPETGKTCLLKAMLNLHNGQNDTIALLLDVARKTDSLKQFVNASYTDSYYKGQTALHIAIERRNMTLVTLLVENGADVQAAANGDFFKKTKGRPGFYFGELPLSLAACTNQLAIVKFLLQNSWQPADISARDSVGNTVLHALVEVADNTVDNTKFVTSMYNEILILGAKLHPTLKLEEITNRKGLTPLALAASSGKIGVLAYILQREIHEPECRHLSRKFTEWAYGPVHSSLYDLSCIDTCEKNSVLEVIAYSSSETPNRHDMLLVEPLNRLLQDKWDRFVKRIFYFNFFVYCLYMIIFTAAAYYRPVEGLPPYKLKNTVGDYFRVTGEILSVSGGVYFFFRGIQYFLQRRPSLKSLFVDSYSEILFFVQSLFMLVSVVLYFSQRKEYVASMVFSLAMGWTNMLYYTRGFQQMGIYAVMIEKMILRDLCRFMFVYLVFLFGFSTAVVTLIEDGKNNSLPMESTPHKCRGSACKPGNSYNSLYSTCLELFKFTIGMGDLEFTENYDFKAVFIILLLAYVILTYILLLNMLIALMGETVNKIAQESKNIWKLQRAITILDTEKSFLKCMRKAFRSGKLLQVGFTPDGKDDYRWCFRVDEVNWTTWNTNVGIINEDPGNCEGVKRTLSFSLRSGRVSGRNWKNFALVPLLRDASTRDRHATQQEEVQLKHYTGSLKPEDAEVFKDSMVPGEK

SMILES	Stability RLM (% metabolized in rat liver microsomes) [1] [%]	Stability HIM (% metabolized in human intestinal microsomes) [2] [%]	AUC [3] [ng·h/mL]	Cmax [3] [ng/mL]	Tmax [3] [h]	half-life [3] [h]	IC50 (vanilloid receptor; [4]) [nM]	IC50 (vanilloid receptor; Table 2, unit inferred, read-out: IC50) [nM]
C#Cc1cc(CNC(=O)/C=C/c2ccc(C(F)(F)F)nc2NC(C)C)cc(F)c1NS(C)(=O)=O [Example 100, N-(3-Ethynyl-5-fluoro-4-methanesulfonylamino-benzyl)-3-(2-isopropylamino-6-trifluoromethyl-pyridin-3-yl)-acrylamide]	3.4	0	17400	2530	3	3.21	69	–
COCCNc1nc(C(F)(F)F)ccc1/C=C/C(=O)NCc1ccc(NS(C)(=O)=O)c(F)c1 [Example 45, N-(3-Fluoro-4-methanesulfonylamino-benzyl)-3-[2-(2-methoxy-ethylamino)-6-trifluoromethyl-pyridin-3-yl]-acrylamide]	10	8.0	–	–	–	–	510	–
C#Cc1cc(CNC(=O)/C=C/c2ccc(C(F)(F)F)nc2N2CCOCC2)cc(F)c1NS(C)(=O)=O [Example 12, N-(3-Ethynyl-5-fluoro-4-methanesulfonylamino-benzyl)-3-(2-morpholin-4-yl-6-trifluoromethyl-pyridin-3-yl)-acrylamide]	11.7	12.0	3240	723	2.38	1.7	260	–
C#Cc1cc(CNC(=O)/C=C/c2ccc(C(C)(C)C)cc2N2CCOCC2)cc(F)c1NS(C)(=O)=O [drawing 334, reference compound]	12.8	54.0	–	–	–	–	–	860
CCCNc1nc(C(F)(F)F)ccc1/C=C/C(=O)NCc1cc(F)c(NS(C)(=O)=O)c(F)c1 [Example 222, N-(3,5-Difluoro-4-methanesulfonylamino-benzyl)-3-(2-propylamino-6-trifluoromethyl-pyridin-3-yl)-acrylamide]	0	0	–	–	–	–	49	–
C#Cc1cc(CNC(=O)/C=C/c2ccc(C(F)(F)F)nc2NCCOC)cc(F)c1NS(C)(=O)=O [Example 65, N-(3-Ethynyl-5-fluoro-4-methanesulfonylamino-benzyl)-3-[2-(2-methoxy-ethylamino)-6-trifluoromethyl-pyridin-3-yl]-acrylamide]	15.3	14.0	–	–	–	–	89	–
CCCCNc1nc(C(F)(F)F)ccc1/C=C/C(=O)NCc1cc(C)c(NS(C)(=O)=O)c(F)c1 [Example 188, N-(3-Fluoro-4-methanesulfonylamino-5-methyl-benzyl)-3-(2-butylamino-6-trifluoromethyl-pyridin-3-yl)-acrylamide]	2.7	1.6	–	–	–	–	87	–
C#Cc1cc(CNC(=O)/C=C/c2ccc(C(F)(F)F)nc2OC)cc(F)c1NS(C)(=O)=O [Example 42, N-(3-Ethynyl-5-fluoro-4-methanesulfonylamino-benzyl)-3-(2-methoxy-6-trifluoromethyl-pyridin-3-yl)-acrylamide]	17.1	17.1	–	–	–	–	96	–
CCCc1nc(C(F)(F)F)ccc1/C=C/C(=O)NCc1ccc(NS(C)(=O)=O)c(Cl)c1 [Example 253, N-(3-Chloro-4-methanesulfonylamino-benzyl)-3-(2-propyl-6-trifluoromethyl)-pyridin-3-yl-acrylamide]	0	3.2	–	–	–	–	500	–
C=Cc1cc(CNC(=O)/C=C/c2ccc(C(F)(F)F)nc2N2CCOCC2)cc(F)c1NS(C)(=O)=O [Example 281, N-(3-Ethenyl-5-fluoro-4-methanesulfonylamino-benzyl)-3-(2-morpholin-1-yl-6-trifluoromethyl-pyridin-3-yl)-acrylamide]	0.5	0	654	215	2	1.26	220	–
